Read-outs that look alike come from different tables or passages of the source. Bridge positions count the residues as written; N and C are the ends. Square brackets hold non-standard residues; d marks the D form. Peptide text beside a SMILES is read from it. S5 = C=CCCC[C@](C)(N)C(=O)O; Nle = CCCC[C@H](N)C(=O)O

The source of these data is US20200231638A1, “STABILIZED ANTI-MICROBIAL PEPTIDES” (priority 2015, published 2020).

One data set deals with S. aureus. The class given is cell-based, Staphylococcus aureus. The method, then:
(§1) Antimicrobial Activity Assay:
(§2) The following microbroth dilution protocol was adapted to determine the minimum inhibitory concentration (MIC) of each peptide. First, Mueller-Hinton broth (MHB) was passed through an anion exchange column to remove polyanionic species and generate refined MHB. […] Briefly, bacterial cells was grown overnight in refined MHB at 37° C. and then diluted and allowed to grow again for several hours. Serial dilutions of peptide stocks in water (10 μl) were prepared using clear round-bottom polypropylene 96-well plates. Then 90 μl of bacteria in refined MHB was added to give a final inoculum of 5×10^5 CFU/ml. The plates were then covered with porous tape to reduce evaporation, and incubated for 20-24 hours at 37° C. The MIC is the minimum peptide concentration at which no visible growth was observed.

The next data set concerns P. aeruginosa. The class given is cell-based, Pseudomonas aeruginosa. The method, then: as §1, §2
For a further data set, the system named is B. cereus. The class given is cell-based, Bacillus cereus. The procedure:
as §1, §2

Another data set has as its system E. coli. The class given is cell-based, Escherichia coli. The procedure:
as §1, §2

In another data set the test system is human red blood cells. Type of data set: cell-based. The procedure: FIG. 5 is a series of line graphs depicting the hemolytic activity of magainin II and stapled analogues. Peptides were incubated with 1% (v/v) human red blood cells in phosphate-buffered solution for 1 hour at 37° C. and then the supernatant was isolated and the amount of hemoglobin released was measured at 540 nm. % hemolysis was calculated relative to an untreated control.
Hemolytic Activity Assay:
For the determination of hemolytic activity, human blood samples were centrifuged to isolate red blood cells (RBCs), which are then washed and suspended in phosphate-buffered saline to yield a 1% (v/v) suspension. The suspension was then added to serial dilutions of peptide stocks in water in clear round-bottom polypropylene 96-well plates and the plates were incubated for 1 hour at 37° C. After incubation, the plates were centrifuged and the supernatant was isolated to determine the amount of hemoglobin released using a spectrophotometer (570 nm), according to the equation: % Hemolysis=(Treated Absorbance−Untreated Control Absorbance)/(1% Triton-X100 Treated Absorbance−Untreated Control Absorbance). The minimum hemolytic concentration (MHC) is the peptide concentration at which there is less than 1% hemoglobin release.

`CCCC[C@H](NC(=O)[C@]1(C)CCCC=CCCC[C@](C)(NC(=O)[C@H](C)NC(=O)[C@H](CCCCN)NC(=O)CNC(=O)[C@H](Cc2ccccc2)NC(=O)[C@H](CCCCN)NC(=O)[C@H](CCCCN)NC(=O)[C@H](Cc2c[nH]cn2)NC(=O)[C@H](CO)NC(=O)[C@]2(C)CCCC=CCCC[C@](C)(NC(=O)[C@H](CCCCN)NC(=O)CN)C(=O)N[C@@H](CCCCN)C(=O)N[C@@H](Cc3ccccc3)C(=O)N[C@@H](CC(C)C)C(=O)N2)C(=O)N[C@@H](C(C)C)C(=O)NCC(=O)N[C@@H](CCC(=O)O)C(=O)N1)C(=O)N[C@@H](CC(N)=O)C(=O)N[C@@H](CO)C(N)=O` [Mag(i + 4)2, 15(I2X, A9H)] (H-GK[S5]KFL[S5]SHKKFGKA[S5]VGE[S5][Nle]NS-NH2; staple 3-7, 16-20): in the data set on S. aureus, the “MIC S. aureus” value is 12.5 µg/mL. In addition, the “MIC P. aeruginosa” value in the data set with P. aeruginosa is 6.2 µg/mL. In the data set with B. cereus, the “MIC B. cereus” value was 6.2 µg/mL. The “MIC E. coli” value against E. coli was found to be 3.1 µg/mL. Also, the “% Hemolysis at 25 μg/ml” value with human red blood cells is reported as “completely eliminated”; in the data set on human red blood cells (red cells of human, 1 h, 25), 0.6%.
As for `CCCC[C@H](NC(=O)[C@]1(C)CCCC=CCCC[C@](C)(NC(=O)[C@H](C)NC(=O)[C@H](CCCCN)NC(=O)CNC(=O)[C@H](Cc2ccccc2)NC(=O)[C@H](CCCCN)NC(=O)[C@H](CCCCN)NC(=O)[C@H](Cc2c[nH]cn2)NC(=O)[C@H](CO)NC(=O)[C@]2(C)CCCC=CCCC[C@](C)(NC(=O)[C@H](CCCCN)NC(=O)CN)C(=O)N[C@@H](CCCCN)C(=O)N[C@@H](Cc3ccccc3)C(=O)N[C@@H](CC(C)C)C(=O)N2)C(=O)N[C@@H](C(C)C)C(=O)N[C@@H](Cc2c[nH]cn2)C(=O)N[C@@H](CCC(=O)O)C(=O)N1)C(=O)N[C@@H](CCC(=O)O)C(=O)N[C@@H](CO)C(N)=O` [Mag(i + 4)2, 15(I2X, A9H, G18H, N21E)] (H-GK[S5]KFL[S5]SHKKFGKA[S5]VHE[S5][Nle]ES-NH2; staple 3-7, 16-20), in the data set with S. aureus, the “MIC S. aureus” value stood at 25 µg/mL. Also, the “MIC P. aeruginosa” value in the data set on P. aeruginosa is 6.2 µg/mL. In addition, in the data set with B. cereus, the “MIC B. cereus” value stood at 6.2 µg/mL. The “MIC E. coli” value in the data set on E. coli is 3.1 µg/mL. In addition, in the data set on human red blood cells (red cells of human, 1 h, 25), the “% Hemolysis at 25 μg/ml” value is 4.0%.
As to `CCCC[C@H](NC(=O)[C@@H](NC(=O)[C@H](CCC(=O)O)NC(=O)CNC(=O)[C@@H](NC(=O)[C@H](Cc1ccccc1)NC(=O)[C@H](C)NC(=O)[C@H](CCCCN)NC(=O)CNC(=O)[C@H](Cc1ccccc1)NC(=O)[C@H](CCCCN)NC(=O)[C@H](CCCCN)NC(=O)[C@H](C)NC(=O)[C@H](CO)NC(=O)[C@]1(C)CCCC=CCCC[C@](C)(NC(=O)[C@@H](NC(=O)CN)[C@@H](C)CC)C(=O)N[C@@H](CCCCN)C(=O)N[C@@H](Cc2ccccc2)C(=O)N[C@@H](CC(C)C)C(=O)N1)C(C)C)[C@@H](C)CC)C(=O)N[C@@H](CC(N)=O)C(=O)N[C@@H](CO)C(N)=O` [Mag(i + 4)2] (H-GI[S5]KFL[S5]SAKKFGKAFVGEI[Nle]NS-NH2; staple 3-7), the “MIC S. aureus” value against S. aureus came out at 12.5 µg/mL. Also, the “MIC P. aeruginosa” value in the data set on P. aeruginosa turned out to be 12.5 µg/mL. For the same compound, the “MIC B. cereus” value with B. cereus is 12.5 µg/mL. The “MIC E. coli” value with E. coli amounted to 3.1 µg/mL. For the same compound, the “% Hemolysis at 25 μg/ml” value in the data set on human red blood cells (red cells of human, 1 h, 25) was 19.6%.
Turning to `CCCC[C@H](NC(=O)[C@@H](NC(=O)[C@H](CCC(=O)O)NC(=O)CNC(=O)[C@@H](NC(=O)[C@H](Cc1ccccc1)NC(=O)[C@H](C)NC(=O)[C@H](CCCCN)NC(=O)CNC(=O)[C@H](Cc1ccccc1)NC(=O)[C@H](CCCCN)NC(=O)[C@H](CCCCN)NC(=O)[C@H](C)NC(=O)[C@]1(C)CCCC=CCCC[C@](C)(NC(=O)CNC(=O)[C@@H](NC(=O)CN)[C@@H](C)CC)C(=O)N[C@@H](Cc2ccccc2)C(=O)N[C@@H](CC(C)C)C(=O)N[C@@H](Cc2c[nH]cn2)C(=O)N1)C(C)C)[C@@H](C)CC)C(=O)N[C@@H](CC(N)=O)C(=O)N[C@@H](CO)C(N)=O` [Mag(i + 4)3] (H-GIG[S5]FLH[S5]AKKFGKAFVGEI[Nle]NS-NH2; staple 4-8), the “MIC S. aureus” value with S. aureus came to 6.2 µg/mL. In addition, in the data set with P. aeruginosa, the “MIC P. aeruginosa” value worked out at 25 µg/mL. Also, the “MIC B. cereus” value against B. cereus is 12.5 µg/mL. For the same compound, the “MIC E. coli” value against E. coli came out at 6.2 µg/mL. For the same compound, the “% Hemolysis at 25 μg/ml” value in the data set on human red blood cells (red cells of human, 1 h, 25) stood at 41.6%.
As for `CCCC[C@H](NC(=O)[C@@H](NC(=O)[C@H](CCC(=O)O)NC(=O)CNC(=O)[C@@H](NC(=O)[C@H](Cc1ccccc1)NC(=O)[C@H](C)NC(=O)[C@H](CCCCN)NC(=O)CNC(=O)[C@H](Cc1ccccc1)NC(=O)[C@H](CCCCN)NC(=O)[C@H](CCCCN)NC(=O)[C@]1(C)CCCC=CCCC[C@](C)(NC(=O)[C@H](CCCCN)NC(=O)CNC(=O)[C@@H](NC(=O)CN)[C@@H](C)CC)C(=O)N[C@@H](CC(C)C)C(=O)N[C@@H](Cc2c[nH]cn2)C(=O)N[C@@H](CO)C(=O)N1)C(C)C)[C@@H](C)CC)C(=O)N[C@@H](CC(N)=O)C(=O)N[C@@H](CO)C(N)=O` [Mag(i + 4)4] (H-GIGK[S5]LHS[S5]KKFGKAFVGEI[Nle]NS-NH2; staple 5-9), the “MIC S. aureus” value in the data set with S. aureus is 25 µg/mL. Further, the “MIC P. aeruginosa” value with P. aeruginosa is 12.5 µg/mL. The “MIC B. cereus” value in the data set with B. cereus came out at 6.2 µg/mL. In addition, in the data set with E. coli, the “MIC E. coli” value was 3.1 µg/mL. Also, the “% Hemolysis at 25 μg/ml” value in the data set with human red blood cells (red cells of human, 1 h, 25) is 17.8%.
For `CCCC[C@H](NC(=O)[C@@H](NC(=O)[C@H](CCC(=O)O)NC(=O)CNC(=O)[C@@H](NC(=O)[C@H](Cc1ccccc1)NC(=O)[C@H](C)NC(=O)[C@H](CCCCN)NC(=O)CNC(=O)[C@H](Cc1ccccc1)NC(=O)[C@H](CCCCN)NC(=O)[C@]1(C)CCCC=CCCC[C@](C)(NC(=O)[C@H](Cc2ccccc2)NC(=O)[C@H](CCCCN)NC(=O)CNC(=O)[C@@H](NC(=O)CN)[C@@H](C)CC)C(=O)N[C@@H](Cc2c[nH]cn2)C(=O)N[C@@H](CO)C(=O)N[C@@H](C)C(=O)N1)C(C)C)[C@@H](C)CC)C(=O)N[C@@H](CC(N)=O)C(=O)N[C@@H](CO)C(N)=O` [Mag(i + 4)5] (H-GIGKF[S5]HSA[S5]KFGKAFVGEI[Nle]NS-NH2; staple 6-10), in the data set with S. aureus, the “MIC S. aureus” value is 25 µg/mL. The “MIC P. aeruginosa” value in the data set on P. aeruginosa came out at 50 µg/mL. For the same compound, the “MIC B. cereus” value against B. cereus was found to be 12.5 µg/mL. The “MIC E. coli” value in the data set on E. coli was 12.5 µg/mL. The “% Hemolysis at 25 μg/ml” value in the data set on human red blood cells (red cells of human, 1 h, 25) amounted to 13.3%.
On to `CCCC[C@H](NC(=O)[C@@H](NC(=O)[C@H](CCC(=O)O)NC(=O)CNC(=O)[C@@H](NC(=O)[C@H](Cc1ccccc1)NC(=O)[C@H](C)NC(=O)[C@H](CCCCN)NC(=O)CNC(=O)[C@]1(C)CCCC=CCCC[C@](C)(NC(=O)[C@H](Cc2c[nH]cn2)NC(=O)[C@H](CC(C)C)NC(=O)[C@H](Cc2ccccc2)NC(=O)[C@H](CCCCN)NC(=O)CNC(=O)[C@@H](NC(=O)CN)[C@@H](C)CC)C(=O)N[C@@H](C)C(=O)N[C@@H](CCCCN)C(=O)N[C@@H](CCCCN)C(=O)N1)C(C)C)[C@@H](C)CC)C(=O)N[C@@H](CC(N)=O)C(=O)N[C@@H](CO)C(N)=O` [Mag(i + 4)7] (H-GIGKFLH[S5]AKK[S5]GKAFVGEI[Nle]NS-NH2; staple 8-12), for which the “MIC S. aureus” value against S. aureus worked out at 6.2 µg/mL. The “MIC P. aeruginosa” value in the data set on P. aeruginosa was found to be 6.2 µg/mL. Moreover, in the data set on B. cereus, the “MIC B. cereus” value turned out to be 6.2 µg/mL. The “MIC E. coli” value in the data set on E. coli was 3.1 µg/mL. Also, the “% Hemolysis at 25 μg/ml” value in the data set on human red blood cells (red cells of human, 1 h, 25) worked out at 62.5%.
As to `CCCC[C@H](NC(=O)[C@@H](NC(=O)[C@H](CCC(=O)O)NC(=O)CNC(=O)[C@@H](NC(=O)[C@H](Cc1ccccc1)NC(=O)[C@H](C)NC(=O)[C@H](CCCCN)NC(=O)[C@]1(C)CCCC=CCCC[C@](C)(NC(=O)[C@H](CO)NC(=O)[C@H](Cc2c[nH]cn2)NC(=O)[C@H](CC(C)C)NC(=O)[C@H](Cc2ccccc2)NC(=O)[C@H](CCCCN)NC(=O)CNC(=O)[C@@H](NC(=O)CN)[C@@H](C)CC)C(=O)N[C@@H](CCCCN)C(=O)N[C@@H](CCCCN)C(=O)N[C@@H](Cc2ccccc2)C(=O)N1)C(C)C)[C@@H](C)CC)C(=O)N[C@@H](CC(N)=O)C(=O)N[C@@H](CO)C(N)=O` [Mag(i + 4)8, GIGKFLHSXKKFXKAFVGEIBNS] (H-GIGKFLHS[S5]KKF[S5]KAFVGEI[Nle]NS-NH2; staple 9-13), the “MIC S. aureus” value with S. aureus is 12.5 µg/mL. In addition, the “MIC P. aeruginosa” value against P. aeruginosa was determined as 3.1 µg/mL. Besides, in the data set on B. cereus, the “MIC B. cereus” value came to 3.1 µg/mL. Further, the “MIC E. coli” value with E. coli was 3.1 µg/mL. The “hemolytic activity (in words)” value with human red blood cells is “indiscriminate lytic activity”. Besides, the “% Hemolysis at 25 μg/ml” value in the data set with human red blood cells (red cells of human, 1 h, 25) is on record as 74.6%.
